Data taken from patent publication US20060020036A1, “Methods and compositions to promote bone homestasis” (priority 2004, published 2006).
“Also recorded” adds a separate entry of the source.

What was measured:
GPR65 = target: T1, GPR65 (Homo sapiens, UniProt Q8IYL9); experiment: AP assay: MPCs infected with Ad-GPR65 and treated with ligand; format: cell-based; details: ligand at different concentrations
T1 construct: amplification of the complete open reading frame from ATG start codon to the stop codon of drugable genes; expressed in transfected cells; host or cells: primary human mesenchymal progenitor cells (MPCs), transduced with Ad-GPR65 and Ad-hCAR
Description: These dose-response curves are depicted in FIG. 5. A dose-response curve for AP activity is generated for MPCs infected with Ad-NR1H3 and treated with T0901317 (FIG. 5A). MPCs are seeded on day 0 at 1000 cells per well of a 384 well plate and co-infected the next day using AdC51-hCAR (MOI 250) and different MOIs of Ad5-NR1H3 (MOI 12000, 4000, 1333, 444). On day 1, 5 concentrations (1E-10M, 1E-9M, 1E-8M, 1E-7M, 1E-6M) of the compound T0901317 (Cayman Chemical, Michigan, USA, Cat. No. 71810) with fixed vehicle concentration (the vehicle is DMSO at the concentration is 0.01%) are added to the wells. After incubation for 6 days at 37° C., 10% CO2 in a humidified incubator, up-regulation of alkaline phosphatase is read: 15 μl MUP is added to each well, the plates are incubated for 15 min at 37° C. and monitored for AP activity using a fluorescence plate reader (Fluostar, BMG).
Dose-response curves for AP activity are generated in a similar way for MPCs infected with Ad-GPR65 and treated with 1-b-D-Galactosylsphingosine (FIG. 5B); for MPCs infected with Ad-AVPR2 and treated with [deamino-Cysl, D-Arg8]-Vasopressin (DDAVP) (FIG. 5C).

NR5A2 mRNA = experiment: Up-regulation of NR5A2 and NR1H3 mRNA levels by osteogenic triggers in MPCs; format: cell-based, human; details: final concentration 0.1 μM, vs vehicle, several time points
Description: 100,000 MPCs are seeded in each well of a 6 well plate in 2 ml MPC medium, containing 10% FCS. The next day, after incubation at 37° C., 10% CO2 in a humidified incubator, cells are co-infected with AdC15-hCAR (final MOI of 750) and Ad-BMP2, Ad-RUNX2, Ad-MSX2, Ad-PTHR1/PTHLH or Ad-eGFP or Ad-luciferase as negative controls (final MOIs of 1250 and 2500). Alternatively, cells are treated with dexamethasone (final concentration 0.1 μM), VitD3 (final concentration 0.1 μM) or the vehicle controls (0.1% EtOH or DMSO). Cells are incubated at 37° C., 10% CO2 in a humidified incubator for a further six days unless cells are already harvested for RNA isolation. Virus is removed and replaced by 2 ml fresh OS medium (proprietary medium containing 10% FCS). Over the next 18 days, medium is refreshed 3 times per 2 weeks. Every other time, medium is refreshed half or completely. […] The fold up-regulation of NR5A2 or NR1H3 mRNA compared to negative controls (vehicle for dexamethasone or VitD3 treatment) or Ad-luciferase for Ad-infections) is calculated (FIG. 16).

[1] = test system: calvarial skull bones (hemicalvaria); experiment: Calvarial skull assay (bone organ culture); format: cell-based, CD1 mice
Description: CD1 pups are harvested around birth from CD1 female mice (received from Janvier (Le Genest St Isle, France) when they were 11 days pregnant). Pups are decapitated and the calvarial skull is dissected and split into 2 hemicalvaria. Hemicalvaria are blotted using sterile gauze, weighed and cultured in 24 well plates (MEMalpha or BGJb-Fitton-Jackson medium containing 50 μg/ml L-ascorbic acid (Sigma, A-4034), 5 mM β-glycerophosphate (Sigma, G-9891) and Penicillin-Streptomycin (Invitrogen Cat # 15140-122)). Small molecules (ligands, agonists, antagonists) are tested in at least three-fold at a minimum of 3 concentrations. Each small molecule is added to the medium on day 0 and added again when refreshing the medium (every 2-3 days). Three to 16 days after the start of the experiment, skulls are weighed again after blotting them dry using sterile gauze. The weight difference is calculated, expressed as percent weight change and the mean and standard deviations (SD) are calculated for the triplicate measurements. Data are analyzed using the Student's t-test.
The formation of new osteoid is analyzed histologically as follows: hemicalvaria are fixed in 10% buffered formalin for at least 2 days, decalcified in 10% EDTA overnight, processed through graded alcohols and embedded in paraffin wax. Three to 10 μm sections are prepared of the calvaria and stained with hematoxylin and eosin (H&E). Healthy cells, dead cells, old and new bone, and collagen are identified by their distinctive morphology and colouring observed after H&E staining. The surfaces taken by these are measured stereologically (μm^2 readout) and termed Osteoblast area, Debris area, Native and New bone area, Collagen area and Total area (sum of the previous 5 areas), respectively. In addition, the thickness (μm readout) is measured at 8 positions, evenly spaced over the section.
The histological readout of the calvarial skull assay is developed using known osteogenic agents. Hemicalvaria were treated with recombinant human parathyroid hormone (rhPTH).
T0901317 is added to the culture medium of the dissected hemicalvaria at the day of dissection at several doses (19.5, 78.1 and 313 nM), in fourfold. The concentration of the solvent (vehicle), DMSO, is fixed at a final concentration of 0.05%. The medium, containing T0901317 or vehicle control is refreshed every 2-3 days. Hemicalvaria are harvested 7 days after the initiation of the experiment and subjected to the histological analysis described above.

T1 sequence (Q8IYL9 whole entry): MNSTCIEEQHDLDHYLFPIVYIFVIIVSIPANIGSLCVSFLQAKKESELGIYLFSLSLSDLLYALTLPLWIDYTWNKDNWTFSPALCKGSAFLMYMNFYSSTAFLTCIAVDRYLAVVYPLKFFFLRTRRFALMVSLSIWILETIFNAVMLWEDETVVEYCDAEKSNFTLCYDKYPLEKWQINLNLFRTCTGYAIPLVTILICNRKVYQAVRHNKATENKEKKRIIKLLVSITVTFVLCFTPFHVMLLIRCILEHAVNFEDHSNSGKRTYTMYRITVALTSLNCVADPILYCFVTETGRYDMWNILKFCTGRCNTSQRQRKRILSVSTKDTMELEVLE

Molecule: CCCCCCCCCCCCCC=CC(O)C(N)CO[C@@H]1O[C@H](CO)[C@H](O)[C@H](O)[C@H]1O (stereo partly drawn) [1-b-D-Galactosylsphingosine]
- up-regulation of endogenous alkaline phosphatase (AP) activity, dose-response (GPR65): dose-dependently increase the up-regulation of the endogenous alkaline phosphatase activity; also recorded: dose-dependent up-regulation of AP activity

Molecule: C=C1CC[C@H](O)C/C1=C/C=C1\CCC[C@]2(C)[C@@H]([C@H](C)CCCC(C)C)CC[C@@H]12 [VitD3]
- NR5A2 mRNA levels (NR5A2 mRNA): up-regulated

B1: PTH: recombinant human parathyroid hormone, known osteogenic agent (protein, UniProt P01270 32-115, looked up)
Parathyroid hormone: SVSEIQLMHNLGKHLNSMERVEWLRKKLQDVHNFVALGAPLAPRDAGSQRPRKKEDNVLVESHEKSLGEADKADVNVLTKAKSQ
modifications: Parathyroid hormone
notes: recombinant human parathyroid hormone, known osteogenic agent
- effect on bone tissue ([1]; 10^−7 M): resorptive effect on bone tissue
- effect on bone tissue ([1]; 10^−11 M): induces bone build-up
